Data as given in patent publication US20220213047A1, “CARBONIC ANHYDRASE INHIBITORS FOR TREATMENT OF NEISSERIA GONORRHOEAE INFECTION” (Purdue Research Foundation, priority 2021, published 2022).

Tests used:
N. gonorrhoeae [1] = assay: MIC by agar dilution on a larger panel of N. gonorrhoeae strains; type: cell-based, Neisseria gonorrhoeae; details: for MIC / MIC50 / MIC90: Neisseria gonorrhoeae; for Original MIC: in brackets in Table 8
Experimental: (§1) These tests were performed in normal culture conditions with standard CO2 levels and in CO2 (5% in incubator) conditions.

Enterococcus = assay: MIC50 against pathogenic and commensal bacteria: Enterococcus; type: cell-based; details: Enterococcus (49 strains); normal
Text: (§2) We have shown that CAIs display a narrow-spectrum of activity (Table 6). We have previously shown that CAIs have potential as anti-enterococcal agents for decolonization of the gut and treating systemic vancomycin-resistant enterococci (VRE) infections without affecting commensal strains common in the human microbiome or other pathogenic bacteria. […] The extremely narrow spectrum of this class of inhibitors would be a positive for clinical use as the molecules: 1) would not have deleterious effects on normal microbiota, and 2) would have less opportunity for resistance to arise to other important pathogenic strains aside from VRE.

S. pneumoniae = assay: MIC50 against pathogenic and commensal bacteria: S. pneumoniae; type: cell-based; details: Streptococcus pneumoniae; S. pneumoniae (4 strains); normal
Text: as §2

N. gonorrhoeae [2] = assay: Multi-step resistance selection; type: cell-based; details: over ten passages
Text: Frequency of mutation—multi-step mutation—We investigated N. gonorrhoeae's ability to develop resistance to CAIs using the multi-step resistance selection experiment^58.
N. gonorrhoeae cultures that grew at the highest concentrations of the compound are used as an inoculum for the subsequent culture.

N. gonorrhoeae [3] = assay: Post-antibiotic effect (PAE); type: cell-based; details: after exposure to 10×MIC for 1 hour
N. gonorrhoeae [4] = assay: MIC against N. gonorrhoeae clinical isolates, normal and CO2 conditions; type: cell-based; details: Neisseria gonorrhoeae
Experimental: as §1

Klebsiella spp. = assay: MIC50 against pathogenic and commensal bacteria: Klebsiella spp.; type: cell-based; details: Klebsiella spp. (4 strains); normal
Text: as §2

S. epidermidis = assay: MIC50 against pathogenic and commensal bacteria: S. epidermidis; type: cell-based; details: Staphylococcus epidermidis; S. epidermidis (3 strains); normal
Text: as §2

Lactobacillus sp = assay: MIC50 against pathogenic and commensal bacteria: Lactobacillus sp; type: cell-based; details: Lactobacillus sp (12 strains); normal
Text: as §2

L. johnsonii = assay: MIC50 against pathogenic and commensal bacteria: L. johnsonii; type: cell-based; details: Lactobacillus johnsonii; L. johnsonii (1 strain); normal
Text: as §2

Bacteroides = assay: MIC50 against pathogenic and commensal bacteria: Bacteroides; type: cell-based; details: Bacteroides (9 strains); normal
Text: as §2

L. crispatus = assay: MIC50 against pathogenic and commensal bacteria: L. crispatus; type: cell-based; details: Lactobacillus crispatus; L. crispatus (2 strains); normal
Text: as §2

S. aureus = assay: MIC50 against pathogenic and commensal bacteria: S. aureus; type: cell-based; details: Staphylococcus aureus; S. aureus (12 strains); normal
Text: as §2

Enterobacter spp. = assay: MIC50 against pathogenic and commensal bacteria: Enterobacter spp.; type: cell-based; details: Enterobacter spp. (4 strains); normal
Text: as §2

L. rhamnosus = assay: MIC50 against pathogenic and commensal bacteria: L. rhamnosus; type: cell-based; details: Lacticaseibacillus rhamnosus; L. rhamnosus (1 strain); normal
Text: as §2

[5] = strain panel of Table 9, CO2 (5% CO2 containing air)

CCOc1ccc2nc(S(N)(=O)=O)sc2c1 [Ethoxzolamide]
> 256 µg/mL: MIC50 (Klebsiella spp.) | MIC50 (S. epidermidis) | MIC50 (Lactobacillus sp) | MIC50 (L. johnsonii) | MIC50 (Bacteroides) | MIC50 (L. crispatus) | MIC50 (S. aureus) | MIC50 (Enterobacter spp.) | MIC50 (L. rhamnosus)
4 µg/mL: MIC50 (Enterococcus)
> 128 µg/mL: MIC (N. gonorrhoeae [1]; N. gonorrhoeae 206, CO2 (5% CO2 containing air), read-out: MIC) | MIC (N. gonorrhoeae [1]; N. gonorrhoeae 208, CO2 (5% CO2 containing air), read-out: MIC) | MIC (N. gonorrhoeae [1]; N. gonorrhoeae 209, CO2 (5% CO2 containing air), read-out: MIC) | MIC50 (N. gonorrhoeae [1]; N. gonorrhoeae (39 strains), CO2 (5% CO2 in the incubator)) | MIC50 (N. gonorrhoeae [1]; [5]) | MIC90 (N. gonorrhoeae [1]; [5]) | MIC (N. gonorrhoeae [1]; strain panel of Table 9, CO2 (5% CO2 containing air), read-out: Modal MIC)
128 µg/mL: MIC (N. gonorrhoeae [1]; N. gonorrhoeae 202, CO2 (5% CO2 containing air), read-out: MIC) | MIC (N. gonorrhoeae [1]; N. gonorrhoeae 205, CO2 (5% CO2 containing air), read-out: MIC)
0.25 µg/mL: MIC (N. gonorrhoeae [1]; N. gonorrhoeae 212, Non CO2 (ambient air), read-out: MIC) | MIC (N. gonorrhoeae [1]; N. gonorrhoeae 214, Non CO2 (ambient air), read-out: MIC) | Original MIC (N. gonorrhoeae [1]; Ng 197)
0.06 µg/mL: MIC (N. gonorrhoeae [1]; N. gonorrhoeae 202, Non CO2 (ambient air), read-out: MIC) | MIC (N. gonorrhoeae [1]; N. gonorrhoeae 209, Non CO2 (ambient air), read-out: MIC) | Original MIC (N. gonorrhoeae [1]; Ng 202)
0.5 µg/mL: MIC (N. gonorrhoeae [1]; N. gonorrhoeae 211, Non CO2 (ambient air), read-out: MIC) | MIC90 (N. gonorrhoeae [1]; strain panel of Table 9, Non CO2 (ambient air, standard CO2 conditions))
no increase: increase in MIC (N. gonorrhoeae [2])
> 64 µg/mL: MIC (N. gonorrhoeae [4]; N. gonorrhoeae 178, normal growth environment (with CO2)) | MIC (N. gonorrhoeae [4]; N. gonorrhoeae 181, normal growth environment (with CO2)) | MIC (N. gonorrhoeae [4]; N. gonorrhoeae 194, normal growth environment (with CO2))
≤ 0.5 µg/mL: MIC (N. gonorrhoeae [4]; N. gonorrhoeae 178, Non CO2 environment) | MIC (N. gonorrhoeae [4]; N. gonorrhoeae 181, Non CO2 environment) | MIC (N. gonorrhoeae [4]; N. gonorrhoeae 194, Non CO2 environment)
64 µg/mL: MIC (N. gonorrhoeae [1]; N. gonorrhoeae 203, CO2 (5% CO2 containing air), read-out: MIC) | MIC (N. gonorrhoeae [1]; N. gonorrhoeae 207, CO2 (5% CO2 containing air), read-out: MIC) | MIC (N. gonorrhoeae [1]; N. gonorrhoeae 210, CO2 (5% CO2 containing air), read-out: MIC) | MIC (N. gonorrhoeae [1]; N. gonorrhoeae 211, CO2 (5% CO2 containing air), read-out: MIC) | MIC (N. gonorrhoeae [1]; N. gonorrhoeae 212, CO2 (5% CO2 containing air), read-out: MIC) | MIC (N. gonorrhoeae [1]; N. gonorrhoeae 213, CO2 (5% CO2 containing air), read-out: MIC) | MIC (N. gonorrhoeae [1]; N. gonorrhoeae 214, CO2 (5% CO2 containing air), read-out: MIC)
10 h: PAE (N. gonorrhoeae [3]; Ng 181) | PAE (N. gonorrhoeae [3]; Ng 186) | PAE (N. gonorrhoeae [3]; Ng 194) | PAE (N. gonorrhoeae [3]; Ng 198) | PAE (N. gonorrhoeae [3]; clinical isolates of N. gonorrhoeae)
> 512 µg/mL: MIC50 (S. pneumoniae)
